The values below come from BindingDB's records for doi:10.1158/0008-5472.can-03-3344 (St. Jude Children'S Research Hospital, 2004).

The data set in a line: TP_TRANSPORTER: drug resistance(Imatinib mesylate) in BCRP-expressing SaoS2 cells.

A word on the IC50: it is the concentration that inhibits the measured activity by half. Low readings indicate higher potency, high ones lower potency. Consider `CCc1c2c(nc3ccc(O)cc13)-c1cc3c(c(=O)n1C2)COC(=O)[C@]3(O)CC` [7-ETHYL-10-HYDROXY-CAMPTOTHECIN], for which the midpoint of inhibition, the IC50, lay at 176 nM.
